Measurements from patent publication US6407106B1, “N-triazolylmethyl-piperazine compounds with neurokinin-receptor antagonist activity” (Solvay Pharmaceuticals GmbH, priority 2000, dated 2002).

Columns and labels:
[1] = target: T1, human NK-1 receptors (Homo sapiens, UniProt P25103); assay: Binding power of the test substances to NK-1 receptors in vitro ([3H]-Substance P displacement, CHO cell membranes); conditions: negative common logarithm of Ki calculated from IC50
T1 construct: expressed in transfected cells; host or cells: CHO cells (membrane preparation)
T1 sequence (P25103 whole entry): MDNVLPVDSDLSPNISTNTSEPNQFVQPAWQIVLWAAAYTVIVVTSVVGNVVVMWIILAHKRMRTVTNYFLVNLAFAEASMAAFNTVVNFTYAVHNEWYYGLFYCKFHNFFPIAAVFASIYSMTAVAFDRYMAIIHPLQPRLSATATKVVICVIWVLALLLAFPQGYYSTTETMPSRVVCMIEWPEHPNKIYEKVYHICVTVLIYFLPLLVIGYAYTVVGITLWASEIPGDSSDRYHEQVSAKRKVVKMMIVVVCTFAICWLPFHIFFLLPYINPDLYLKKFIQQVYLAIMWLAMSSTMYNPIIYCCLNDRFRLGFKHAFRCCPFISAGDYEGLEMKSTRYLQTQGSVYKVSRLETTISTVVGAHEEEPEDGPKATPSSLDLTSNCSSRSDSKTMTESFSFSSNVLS
Procedure: The affinity of the test substances to human NK-1 receptors was measured in vitro. The inhibition of the binding of the physiological neurokinin (Substance P) to neurokinin-1 receptors was determined.
The receptor binding studies were performed with [^3H]-Substance P as ligand. For the binding test, different samples of a membrane preparation of CHO cells (=egg cells of the Chinese hamster, […]), which express the human NK-1 receptor (“Accession Number” of the associated nucleic acid sequence=M74290; “Accession Number” of the associated protein sequence=P25103; cf. Takeda, Y.; Chou, K. B., Takeda, J.; Sachais, B. S. and Krause, J. E; Biochemical and Biophysical Research Communications, 179(3) (1991) 1232-1240), were incubated with a solution of the marked ligand, with the incubation mixtures containing no test substance or additions of different concentrations of test substance. Then, separation of bound and free ligands was performed in each of the samples with the aid of glass-fibre filtration. The fraction remaining in the filter was washed several times with buffer solution and then the radioactivity of the fraction remaining in the filter was measured using a beta scintillation counter.
For the compounds of Examples 1 and 8 to 65, the affinity to human NK-1 receptors was determined in each case by a single measurement of the test substances in a concentration of 10^−7 mol/l.
For the compounds of Examples 2 and 4-6, that concentration which effects half maximum displacement of the bound ligand was determined as IC50 of the respective test substance. From this, the corresponding inhibition constant (Ki value) of the test substance was calculated, and was stated as the negative common logarithm of the Ki value (=pKi value). The pKi value is a measurement of the affinity of the test substances to human NK-1 receptors.

[2] = target: T2, NK-1 receptors (Cavia porcellus, UniProt P30547); assay: Functional NK-1 antagonism on isolated guinea pig aorta rings (inhibition of Substance P-induced relaxation); type: cell-based; conditions: half maximum inhibition of relaxation of tone caused by 0.01 μmol Substance P; phenylephrine-tonicised guinea pig aorta
T2 construct: isolated ring preparations, kept in an oxygenated nutrient solution, of the aortas of Pirbright-White guinea pigs; from tissue; host or cells: isolated aorta rings of Pirbright-White guinea pigs
T2 sequence (P30547 whole entry): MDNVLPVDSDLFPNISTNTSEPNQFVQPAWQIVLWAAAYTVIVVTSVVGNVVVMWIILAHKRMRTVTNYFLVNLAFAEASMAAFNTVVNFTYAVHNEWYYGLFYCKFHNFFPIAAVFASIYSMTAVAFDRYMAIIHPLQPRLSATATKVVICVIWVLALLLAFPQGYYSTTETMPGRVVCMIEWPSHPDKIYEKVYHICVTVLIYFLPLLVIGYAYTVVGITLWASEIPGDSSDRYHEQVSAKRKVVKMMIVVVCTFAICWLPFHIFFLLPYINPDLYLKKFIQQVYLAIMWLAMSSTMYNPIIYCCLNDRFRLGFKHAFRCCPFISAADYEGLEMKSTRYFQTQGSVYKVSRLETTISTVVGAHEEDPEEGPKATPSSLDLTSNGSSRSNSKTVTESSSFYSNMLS
Procedure: The action antagonistic to NK-1 receptors of the test substances was measured in vitro on isolated ring preparations, kept in an oxygenated nutrient solution, of the aortas of Pirbright-White guinea pigs. The inhibition by the test substances of the relaxation of tone of the aorta preparations, caused after stimulation with the NK-1 agonist Substance P, was determined.
In order to measure the contraction of the vessel muscles, the preparations were fixed to a hook, joined by a thread to a force measuring apparatus and the contractions were recorded in each case on a plotter. The aorta preparations were tonicised with phenylephrine. Then before and after the administration of the test substance the NK-1 receptors of the preparations were stimulated with 0.01 μmol Substance P, which caused relaxation of the tone. The relaxations before and after the administration of the test substance were quantified in percent. The effective concentration of the half maximum inhibition of the relaxation of the tone (=EC50) was calculated. The negative common logarithm of the EC50 value (=pEC50) was given as characteristic variable. The pEC50 value is a measurement of the functional effectiveness of the test substances on NK-1 receptors.

[3] = test system: gerbil foot tapping; assay: Gerbil foot tapping test for CNS-permeable NK-1 antagonists; type: in vivo; conditions: doses of up to 30 mg/kg p.o.
[4] = test system: basal blood pressure; assay: Vasodepressive effects based on calcium-antagonistic properties (action on basal blood pressure); type: in vivo; conditions: guinea pig, i.v. doses of up to 0.1 μmol/kg and p.o. doses of up to 3.2 μmol/kg
Procedure: The arterial catheter served to measure the blood pressure. The administration of Substance P and, in the case of i.v. administration, also the administration of the test substance, was effected by means of the venous access. After a 20-minute equilibration phase, 50 pmol/animal of Substance P were administered (bolus, i.v.) as a test stimulus. One minute after administration of the test stimulus, in each case the maximum drop in blood pressure induced thereby was determined as a control for the later stimulation of the NK-1 receptors by the test substance. Then the test substance was administered. For the i.v. investigation, the test substance was administered in metered doses of 0.01 to 0.1 μmol/kg. For the p.o. investigation, the test substance was administered in metered doses of 0.1 to 3.2 μmol/kg. Tylose or Tylose/ethanol was used as the vehicle for the p.o. investigations. Then, in each case the extent of the vasodepression inhibited by the test substance was measured, starting 1 minute after administration of test substance, up to 90 minutes after administration of test substance, at intervals of 15 minutes each time. The doses at which, dependent on the time, just 50% inhibition of the Substance P-induced vasodepression occurs due to the test substance were determined from these measured values as ED50 values. […]

[5] = Solubility in water; type: physicochemical

| SMILES | Ki [1] | EC50 [2] | typical effects of CNS-permeable NK-1 antagonists [3] | vasodepression (action on basal blood pressure, calcium-antagonistic side-effect) [4] | solubility in water [5] |
| --- | --- | --- | --- | --- | --- |
| CN(C)Cc1n[nH]nc1CN1CCN(C(=O)c2cc(C(F)(F)F)cc(C(F)(F)F)c2)[C@H](Cc2c[nH]c3ccccc23)C1 [Example 4, (2R)-1-[3,5-Bis(trifluoromethyl)benzoyl]-2-(1H-indol-3-ylmethyl)-4-{[5-(dimethylaminomethyl)-2H-1,2,3-triazol-4-yl]methyl}piperazine] | 5.01 nM | 2.51 nM | – | – | – |
| Cn1cc(C[C@@H]2CN(Cc3n[nH]nc3CN3CCOCC3)CCN2C(=O)c2cc(C(F)(F)F)cc(C(F)(F)F)c2)c2ccccc21 [Example 3] | – | 3.98 nM | – | – | – |
| CC(C)N(Cc1n[nH]nc1CN1CCN(C(=O)c2cc(C(F)(F)F)cc(C(F)(F)F)c2)[C@H](Cc2c[nH]c3ccccc23)C1)C(C)C [Example 6] | 3.98 nM | 1.26 nM | – | – | – |
| O=C(c1cc(C(F)(F)F)cc(C(F)(F)F)c1)N1CCN(Cc2n[nH]nc2CN2CCOCC2)C[C@H]1Cc1c[nH]c2ccccc12 [Example 1, (2R)-1-[3,5-Bis(trifluoromethyl)benzoyl]-2-(1H-indol-3-ylmethyl)-4-{[5-(morpholinomethyl)-2H-1,2,3-triazol-4-yl]methyl}piperazine] | – | 1 nM | did not exhibit any typical effects of CNS-permeable NK-1 antagonists | no significant vasodepression | – |
| CCN(CC)Cc1n[nH]nc1CN1CCN(C(=O)c2cc(C(F)(F)F)cc(C(F)(F)F)c2)[C@H](Cc2c[nH]c3ccccc23)C1 [Example 5] | 5.01 nM | 2 nM | – | – | – |
| Cl.Cl.O=C(c1cc(C(F)(F)F)cc(C(F)(F)F)c1)N1CCN(Cc2n[nH]nc2CN2CCOCC2)C[C@H]1Cc1c[nH]c2ccccc12 [(2R)-1-[3,5-bis(trifluoromethyl)benzoyl]-2-(1H-indol-3-ylmethyl)-4-{[5-(morpholinomethyl)-2H-1,2,3-triazol-4-yl]methyl}piperazine-dihydrochloride] | – | – | – | – | comparatively readily soluble in water |
| O=C(c1cc(C(F)(F)F)cc(C(F)(F)F)c1)N1CCN(Cc2n[nH]nc2CN2CCNCC2)C[C@H]1Cc1c[nH]c2ccccc12 [Example 2] | 3.98 nM | 0.794 nM | – | – | – |
